# Measured values published in US6407075B1, “Fatty acid treatment” (priority 1996, dated 2002).
# Assays:
# [1] = test system: side effects of chemotherapy; test: Case histories of patients given fatty acid derivatives with chemotherapy; assay type: in vivo, human patients
# Description: The following histories illustrate use of the invention
# This chemotherapy regime normally causes severe vomiting and nausea, marked malaise and anorexia.
# C. […] The chemotherapy regime normally causes nausea, vomiting, mucositis and white cell suppression.
# This normally causes nausea, vomiting, white cell suppression and mucositis.
# [2] = test system: cardiotoxicity of doxorubicin; test: Cardiotoxicity of doxorubicin in mice pre-treated with fatty acids; assay type: in vivo; settings: 20 mg doxorubicin intraperitoneally, fatty acid pre-treatment
# [3] = test system: lung toxicity of bleomycin; test: Lung toxicity (fibrosis) of intratracheal bleomycin in animals; assay type: in vivo; settings: bleomycin into the trachea, about 5-10 IU per kg body weight, 2-4 weeks
# Procedure: We have recently supported the clinical observations by animal studies on the cardiotoxicity of doxorubicin and the lung toxicity of bleomycin. When 20 mg of doxorubicin (DOX) is given intraperitoneally to mice, the animals usually die within two weeks because of cardiac damage. When animals were pre-treated with LA or with GLA or with EPA or with DHA in various doses and chemical forms, the death rate to the same dose of doxorubicin was reduced to between 20% and 60% depending on the dose and the precise chemical administered. […] Similarly, bleomycin introduced into the trachea of animals under anaesthesia at a dose of about 5-10 IU per kg body weight, within 2-4 weeks the animals develop severe lung fibrosis which is very similar to the fibrosis which occurs in human patients treated with bleomycin. […] In a third animal study, the anti-cancer streptozotocin was used. A major effect of this compound is to damage the islet cells of the pancreas and consequently to lead to insulin dependent diabetes.
# [4] = test system: streptozotocin damage to the islet cells of the pancreas; test: Streptozotocin-induced diabetes in rats; assay type: in vivo; settings: fatty acid administered prior to streptozotocin
# Description: In a third animal study, the anti-cancer streptozotocin was used. A major effect of this compound is to damage the islet cells of the pancreas and consequently to lead to insulin dependent diabetes.
# [5] = test system: toxic side effects of chemotherapy; test: Clinical observations in cancer patients receiving conventional chemotherapy plus fatty acids; assay type: in vivo, human patients; settings: patients receiving conventional chemotherapy and the fatty acid at the same time
# Description: In many instances, the fatty acids have been given to patients who at that same time were receiving conventional chemotherapy for their cancer.
# [6] = case C, breast cancer, 'CMF' regime, 30 g cumulative intravenously, then 2 g/day oral
# [7] = case D, metastatic colon cancer, 5-fluorouracil, 3 g/day from two weeks before and during chemotherapy
compound,measurement,setting,value
CCCCC/C=C\C/C=C\C/C=C\CCCCC(=O)[O-].[Li+] [lithium salt of gammalinolenic acid],general well-being,"[1]; case B, Hodgkin's disease, 'MOPP' regime, 3 g per day orally",remained well and able to continue working
same,nausea,"[1]; case B, Hodgkin's disease, 'MOPP' regime, 3 g per day orally from one week before and throughout chemotherapy",only mild nausea
same,nausea,[1]; [6],only mild nausea
same,suppression of the white cell count,[1]; [6],less than expected
same,vomiting or mucositis,[1]; [6],no vomiting or mucositis
"CCCCC/C=C\C/C=C\C/C=C\CCCCC(=O)O [GLA, gamma-linolenic acid]",reduction in cardiac weight characteristic of doxorubicin toxicity,[2],considerably attenuated
same,lung pathological changes and increased production of fibrous tissue,[3],almost entirely suppress
same,likelihood of the development of diabetes,[4],greatly reduced
same,toxic side effects of chemotherapy,[5],substantially reduced
"CCCCC/C=C\C/C=C\CCCCCCCC(=O)O [LA, linoleic acid]",reduction in cardiac weight characteristic of doxorubicin toxicity,[2],considerably attenuated
same,lung pathological changes and increased production of fibrous tissue,[3],almost entirely suppress
same,likelihood of the development of diabetes,[4],greatly reduced
same,toxic side effects of chemotherapy,[5],substantially reduced
CC/C=C\C/C=C\C/C=C\C/C=C\C/C=C\CCCC(=O)OCC(COC(=O)CCC/C=C\C/C=C\C/C=C\C/C=C\C/C=C\CC)OC(=O)CCC/C=C\C/C=C\C/C=C\C/C=C\C/C=C\CC [triglyceride of eicosapentaenoic acid],nausea and white cell suppression,[1]; [7],less than expected
same,vomiting or mucositis,[1]; [7],no vomiting or mucositis
"CC/C=C\C/C=C\C/C=C\C/C=C\C/C=C\C/C=C\CCC(=O)O [DHA, docosahexaenoic acid]",toxic side effects of chemotherapy,[5],substantially reduced
"CC/C=C\C/C=C\C/C=C\C/C=C\C/C=C\CCCC(=O)O [EPA, eicosapentaenoic acid]",toxic side effects of chemotherapy,[5],substantially reduced
dilinoleoyl-monogammalinolenoyl-glycerol [DLMG],general well-being,"[1]; case A, glioblastoma patient, carmustine",felt well throughout
same,nausea,"[1]; case A, glioblastoma patient, carmustine, given prior to and during the course",only very mild nausea
